The subject of assay [1] is Jurkat human T lymphocyte cell line. As to the kind of experiment: Annexin V apoptosis assay. In kind it is cell-based. Particulars: 24 hours, compound pre-incubated in human serum 48 hours, FIG. 1. Here is the method:
(§1) Pooled human serum was stored in aliquots at −80° C. Test compounds were added at 20 mM to thawed human serum in 1.5 ml microfuge tubes and incubated at 37° C. in a water bath for 48 hours. The test samples were placed on ice until dilution for the bioassay. Controls consisted of the compounds incubated in complete tissue culture medium (RPMI 1640 medium plus 5% heat-inactivated fetal calf serum, 1% HEPES, 1% pen/strep, 1% glutamine) rather than human serum.
Test samples (incubated in human serum as described in section A) were diluted to 1 mM in complete tissue culture medium. Aliquots were placed in microculture plates and serial dilutions were prepared so that the final concentration would encompass the range of 2 to 6,000 nM with half-log increments. […]
After 24 hours, the plates were centrifuged to pellet the cells, and the cells were washed twice with 2% heat-inactivated fetal calf serum in PBS. […] The contents of the wells were individually transferred into test tubes, and apoptosis was analyzed using a FACSCalibur flow cytometer (BD Immunocytometry Systems, San Jose, Calif.). Cells positive for Annexin V binding were considered to be apoptotic, and the data were calculated as percent apoptotic cells. […]

Assay [2] relates to IL-2 production by Jurkat cells. As to the kind of experiment: IL-2 production assay. In kind it is cell-based. As to conditions: Jurkat cells stimulated with anti-CD3 antibody and PMA, 24 hours; compound pre-incubated in human serum; FIG. 2. As to the method: as §1
Test samples, incubated in human serum as described in Example 2A, were diluted to 1 mM in complete tissue culture medium. Aliquots were placed in microculture plates that had been coated with anti-CD3 antibody (used to stimulate the production of IL-2 by Jurkat cells), and serial dilutions were prepared so that the final concentration would encompass the range of 0.001 to 10,000 nM in log increments. […] The stored supernatants were analyzed for human IL-2 concentration using the Luminex 100 (Luminex Corporation, Austin, Tex.), Luminex microspheres coupled with anti-IL-2 capture antibody, and fluorochrome-coupled anti-IL-2 detection antibody. The data were expressed as ng/ml of IL-2. […]

For assay [3], the system named is HT-29 human colon cancer cell line. Particulars: HT-29 tumor xenografts, U.S. Pat. No. 6,620,843, cited from earlier work.

Regarding `CC(C)[C@]12O[C@H]1[C@@H]1O[C@]13[C@]1(O[C@H]1C[C@H]1C4=C(CC[C@@]13C)C(=O)OC4)[C@]2(C)O` [PG670, 14-C-methyltriptolide], the “induction of apoptosis (percent apoptotic cells, Annexin V)” value in assay [1] was “dose-dependent induction of apoptosis”. For the same compound, the “inhibition of IL-2 production” value in assay [2] is “inhibition of IL-2 production”.

As for `CC(C)[C@]12O[C@H]1[C@@H]1O[C@]13[C@]1(O[C@H]1C[C@H]1C4=C(CC[C@@]13C)C(=O)OC4)[C@@H]2OC(=O)CCC(=O)O` [triptolide 14-succinate], the tumor regression result in assay [3] was “induced tumor regression”. Besides, the tumor growth inhibition result in assay [3] (in comparison to 5-FU and CPT-11) is listed as “strongly inhibited tumor growth”.

Values taken from patent US7098348B2, “Triptolide derivatives as immunomodulators and anticancer agents” (priority 2002, dated 2006).
